Data reported in US11066378B2, “Caffeic acid derivatives for anti-angiogenesis” (Taipei Medical University, priority 2015, dated 2021).

Legend:
[1] = tested on: LLC1 lung carcinoma tumor; assay: Lewis lung carcinoma-bearing mouse model; type: in vivo; settings: LLC1-bearing mice, 2-week treatment, 4 and 8 mg/kg/day intraperitoneal, FIG. 1A
Text: The experimental design and procedure according to the method reported by our previous study with minor modification (Liu et al., 2013). Briefly, male C57BL/6 mice (average of 8-week-old) were purchased from the BioLASCO (Taipei, Taiwan) and housed in a 12-h light/dark cycles with free access to food and water. All animal care followed the institutional animal ethical guidelines of ChinaMedical University (Taichung, Taiwan). After 1 week adaptation, the mice were divided randomly into three groups (n=6/group): Group 1 (control group; treatment with normal saline), Group 2 (treatment with 4 mg/kg body weight/day of […]), and Group 3 (treatment with 8 mg/kg body weight/day of […]). At first, the LLC1 lung cancer cells (6×10^5 cells in 100 μL of total volume) were injected subcutaneously into the back skin of mice to induce lung carcinoma xenografts. Two weeks later, the tumor-bearing mice began to receive the treatments according to experiment design (normal saline or […] with different dosages) by intraperitoneal injection once a day for two weeks. At the end of the study, the tumor masses were harvested to photograph and weighted.

[2] = tested on: VEGF-induced vessel formation within the Matrigel plug; assay: Matrigel plug assay (VEGF-induced neovascularization); type: in vivo, mouse; settings: mice, dose-dependent
Description: Male C57BL/6 (average of 6-week-old) mice were divided randomly into four groups (n=3/group): Group 1 (control group; injection with 500 μL cold-Matrigel [#356237; BD Biosciences]), Group 2 (injection with 500 μL cold-Matrigel containing 100 ng/mL VEGF and 100 U/mL heparin), Group 3 (injection with 4 μM […] dissolved in 500 μL cold-Matrigel containing 100 ng/mL VEGF and 100 U/mL heparin), and Group 4 (injection with 8 μM […] dissolved in 500 μL cold-Matrigel containing 100 ng/mL VEGF and 100 U/mL heparin). After 1 week adaptation, the mice were anesthetized and injected subcutaneously with pre-prepared cold-Matrigel gel mentioned above into the left groin region to form jelly-like plug under normal body temperature. The vascular endothelial cells will be attracted by Matrigel plug-released VEGF to form the new vessel within the Matrigel plug, whose process will be suppressed by anti-angiogenic substances added in the Matrigel plugs. After 7 days, the mice were sacrificed and the Matrigel plug was recovered and photographed. The harvested Matrigel plugs were further homogenized in 1× phosphate buffered saline (PBS) and then centrifuged at 10000×g for 10 min at 4° C. The Drabkin's Reagent (#D5941; Sigma-Aldrich, Louis, Mo., USA) was applied for examining the hemoglobin content in the supernatants of the homogenized Matrigel plugs according to the manufacturer's instructions. […]

HUVECs [3] = assay: Matrigel cell invasion assay; type: cell-based, human; settings: 0.5 μM, 16 h, FIG. 3B
Description: For evaluating cell migration, the HUVECs (1×10^5 cells/well) suspended within serum-free culture medium were seeded on inner surface of the upper chamber (ThinCerts™ Cell Culture Inserts with 8 μm pore size; #662638; Greiner Bio-One Inc., Monroe, N.C., USA) placed in the lower chamber (wells of a 24-well plate). For examining the cell invasion, the HUVECs were pre-mixed with equal volume of thawed Matrigel and rapidly seeded on the upper chamber. After 2 h for cell attachment, K20E at different concentrations (0.5, 1, and 2 μM) were added in the upper and the lower chambers, while 5% FBS as a chemoattractant was added in the lower chamber to facilitate cell migration or invasion. After 16 h incubation, the culture medium (or Matrigel) was removed clearly from inside the upper chamber, and the migrated or invasion cells attached on the outer surface of the upper chamber were fixed with 10% formaldehyde for 10 min at RT. The fixed cells were subsequently counterstained with hematoxylin. Relative cell number of each groups was counted from five random regions by light microscopy using a 40-fold magnification. The cell number of the control group (treated with 5% FBS alone) was defined as 100%.

HUVECs [4] = assay: Tube formation analysis; type: cell-based, human; settings: 8 h, 5% FBS, 0.5, 1 and 2 μM, dose-dependent, FIG. 4
Description: The experiments were performed as described previously (Pan et al., 2010). The HUVECs (lx 10^4 cells/well) were seeded on Matrigel-coated wells of a 96-well plate and then incubated with various concentrations (0.5, 1, and 2 μM) of K20E for 8 h. After that, the capillary-like tube formation was observed by light microscopy at 40-fold magnification, and the tube lengths of the capillary mesh were measured to evaluate anti-angiogenic effect of K20E. The tube length of the control group (treated with 5% FBS alone) was defined as 100%.

VEGF = VEGF level in LLC1 cells (immunoblot) and culture medium (ELISA); type: cell-based, mouse; settings: 24 h, FIG. 5
Description: The experiments were carried out as described previously (Pan et al., 2010). Briefly, the cells (5×10^5 cells/well) seeded on the 6-well plates and incubated with different concentrations (0.5, 1, and 2 μM) of K20E under normal culture condition for 15 min or 24 h to detect the expression levels of the phosphorylated proteins and the total proteins, respectively. The treated cells were harvested and lysed by using PROPREP® protein extraction solution (#17081; iNtRON Biotechnology, Gyeonggi-Do, South Korea). The cell lysates were further centrifuged at 13000×g at 4° C. for 10 min to collect the supernatants for sodium dodecyl sulfate-polyacrylamide gel electrophoresis (SDS-PAGE). Protein concentration was measured by the Bio-Rad protein assay kit (Bio-Rad, Hercules, Calif., USA) according to the manufacturer's instructions. Aliquots containing 30 μg protein were electrophoresed using 10% slab SDS-PAGE gels and then transferred to PVDF membranes (Immobilon-P™; Millipore, Bedford, Mass., USA). […] The luminescence signal was acquired by Fujifilm LAS-4000 system (San Leandro, Calif., USA) and quantified by using MultiGauge software (v3.0; Fujifilm). […] The relative protein expression was calculated according to the values of the control group (treated with 5% or 10% FBS alone) as 100%. […]

## COC(=O)/C=C/c1cc(OC(C)=O)c2c(c1)[C@H](C(=O)OC)[C@@H](c1ccc(OC(C)=O)c(OC(C)=O)c1)O2 [K20E]
[1]
  tumor mass: dose-dependently reduced
[2]; 4 and 8 μM, not at lower dose (1 and 2 μM), FIG. 1B upper panel
  neovessel formation within the Matrigel plug with VEGF: significantly decreased
[2]; compared to Matrigel with VEGF alone, FIG. 1B lower panel
  hemoglobin content of the implanted Matrigel plugs with VEGF: obviously diminished
HUVECs [3]
  5% FBS-induced cell invasion of the HUVECs: largely suppressed
HUVECs [4]
  tube formation of the HUVECs on Matrigel: significantly suppressed
VEGF; LLC1 cancer cells, immunoblot
  intracellular level of VEGF protein: dose-dependently decrease
VEGF; LLC1 culture medium, ELISA
  secreted level of VEGF protein: dose-dependently decrease
